Measurements: ChEMBL document CHEMBL4765344, “Expanding the anticancer potential of 1,2,3-triazoles via simultaneously targeting Cyclooxygenase-2, 15-lipoxygenase and tumor-associated carbonic anhydrases” (Eur J Med Chem, 2020)

Legend:
WI-38 = test: Cytotoxicity against human WI-38 cells assessed as reduction in cell viability after 72 hrs by SRB assay; assay type: cell-based; conditions: WI-38, 72 h
A549 [1] = test: Antiproliferative activity against human A549 cells assessed as inhibition of cell growth at 100 microM measured after 72 hrs by SRB assay; assay type: functional
HepG2 [2] = test: Antiproliferative activity against human HepG2 cells assessed as inhibition of cell growth at 100 microM measured after 72 hrs by SRB assay; assay type: functional
MCF7 [3] = test: Antiproliferative activity against human MCF-7 cells assessed as inhibition of cell growth at 100 microM measured after 72 hrs by SRB assay; assay type: functional
A549 [4] = test: Antiproliferative activity against human A549 cells assessed as cell growth inhibition measured after 72 hrs by SRB assay; assay type: functional, cell-based; conditions: A549, 72 h
HepG2 [5] = test: Antiproliferative activity against human HepG2 cells assessed as cell growth inhibition measured after 72 hrs by SRB assay; assay type: functional, cell-based; conditions: HepG2, 72 h
MCF7 [6] = test: Antiproliferative activity against human MCF-7 cells assessed as cell growth inhibition measured after 72 hrs by SRB assay; assay type: functional, cell-based; conditions: MCF7, 72 h
MCF7 [7] = test: Induction of apoptosis in human MCF-7 cells assessed as early apoptotic cells at IC50 measured after 24 hrs by Annexin V-FITC/propidium iodide staining based flow cytometry (reference value: 0.4%); assay type: functional
MCF7 [8] = test: Induction of apoptosis in human MCF-7 cells assessed as late apoptotic cells at IC50 measured after 24 hrs by Annexin V-FITC/propidium iodide staining based flow cytometry (reference value: […]); assay type: functional
MCF7 [9] = test: Induction of apoptosis in human MCF-7 cells assessed as necrotic cells at IC50 measured after 24 hrs by Annexin V-FITC/propidium iodide staining based flow cytometry (reference value: 1.27%); assay type: functional
A549 [10] = test: Induction of apoptosis in human A549 cells assessed as early apoptotic cells at IC50 measured after 24 hrs by annexin V-FITC staining based flow cytometry (reference value: 0.63%); assay type: functional
A549 [11] = test: Induction of apoptosis in human A549 cells assessed as late apoptotic cells at IC50 measured after 24 hrs by annexin V-FITC staining based flow cytometry (reference value: […]); assay type: functional
A549 [12] = test: Induction of apoptosis in human A549 cells assessed as necrotic cells at IC50 measured after 24 hrs by annexin V-FITC staining based flow cytometry (reference value: 1.01%); assay type: functional
MCF7 [13] = test: Induction of apoptosis in human MCF7 cells assessed as caspase-9 expression at IC50 by ELISA (reference value: 1.77 +/- 0.1 ng/ml); assay type: functional
MCF7 [14] = test: Induction of apoptosis in human MCF7 cells assessed as fold change in caspase-9 expression at IC50 by ELISA relative to control; assay type: functional
MCF7 [15] = test: Induction of apoptosis in human MCF7 cells assessed as Bax expression at IC50 by ELISA (reference value: 45.46 +/- 3.6 pg/ml); assay type: functional
MCF7 [16] = test: Induction of apoptosis in human MCF7 cells assessed as fold change in Bax expression at IC50 by ELISA relative to control; assay type: functional
MCF7 [17] = test: Induction of apoptosis in human MCF7 cells assessed as Bcl-2 expression at IC50 by ELISA (reference value: 7.49 +/- 0.1 ng/ml); assay type: functional
MCF7 [18] = test: Induction of apoptosis in human MCF7 cells assessed as fold change in Bcl-2 expression at IC50 by ELISA relative to control; assay type: functional
A549 [19] = test: Induction of apoptosis in human A549 cells assessed as caspase-9 expression at IC50 by ELISA (reference value: […] +/- […] ng/ml); assay type: functional
A549 [20] = test: Induction of apoptosis in human A549 cells assessed as fold change in caspase-9 expression at IC50 by ELISA relative to control; assay type: functional
A549 [21] = test: Induction of apoptosis in human A549 cells assessed as Bax expression at IC50 by ELISA (reference value: 42.16 +/-6.2 pg/ml); assay type: functional
A549 [22] = test: Induction of apoptosis in human A549 cells assessed as fold change in Bax expression at IC50 by ELISA relative to control; assay type: functional
A549 [23] = test: Induction of apoptosis in human A549 cells assessed as Bcl2 expression at IC50 by ELISA (reference value: 9.04 +/-0.1 ng/ml); assay type: functional
A549 [24] = test: Induction of apoptosis in human A549 cells assessed as fold change in Bcl2 expression at IC50 by ELISA relative to control; assay type: functional
[25] = Toxicity in ip dosed BALB/c mouse measured for 3 days; assay type: organism-based; conditions: in vivo, time 3 day
MCF7 [26] = test: Antitumor activity against human MCF7 cells xenografted in BALB/c mouse assessed as reduction in tumor volume at 23 mg/kg, ip administered thrice a week for 28 days by vernier caliper analysis; assay type: functional; conditions: time 28 day
MCF7 [27] = test: Induction of cell cycle arrest in human MCF7 cells assessed as accumulation at pre-G1 phase at IC50 measured after 24 hrs by propidium iodide/RNase staining based flow cytometry (reference value: 1.96%); assay type: functional
MCF7 [28] = test: Induction of cell cycle arrest in human MCF7 cells assessed as accumulation at G0/G1 phase at IC50 measured after 24 hrs by propidium iodide/RNase staining based flow cytometry (reference value: 51.72%); assay type: functional
MCF7 [29] = test: Induction of cell cycle arrest in human MCF7 cells assessed as accumulation at G2/M phase at IC50 measured after 24 hrs by propidium iodide/RNase staining based flow cytometry (reference value: 18.4%); assay type: functional
MCF7 [30] = test: Induction of cell cycle arrest in human MCF7 cells assessed as accumulation at S phase at IC50 measured after 24 hrs by propidium iodide/RNase staining based flow cytometry (reference value: 29.88%); assay type: functional
MCF7 [31] = test: Induction of cell cycle arrest in human MCF7 cells assessed as reduction in accumulation at G0/G1 phase at IC50 measured after 24 hrs by propidium iodide/RNase staining based flow cytometry relative to control; assay type: functional
MCF7 [32] = test: Induction of cell cycle arrest in human MCF7 cells assessed as increase in accumulation at G2/M phase at IC50 measured after 24 hrs by propidium iodide/RNase staining based flow cytometry relative to control; assay type: functional
MCF7 [33] = test: Induction of cell cycle arrest in human MCF7 cells assessed as increase in accumulation at pre-G1 phase at IC50 measured after 24 hrs by propidium iodide/RNase staining based flow cytometry relative to control; assay type: functional
A549 [34] = test: Induction of cell cycle arrest in human A549 cells assessed as accumulation at pre-G1 phase at IC50 measured after 24 hrs by propidium iodide/RNase staining based flow cytometry (reference value: 1.93%); assay type: functional
A549 [35] = test: Induction of cell cycle arrest in human A549 cells assessed as accumulation at G0/G1 phase at IC50 measured after 24 hrs by propidium iodide/RNase staining based flow cytometry (reference value: 58.26%); assay type: functional
A549 [36] = test: Induction of cell cycle arrest in human A549 cells assessed as accumulation at G2/M phase at IC50 measured after 24 hrs by propidium iodide/RNase staining based flow cytometry (reference value: 9.86%); assay type: functional
A549 [37] = test: Induction of cell cycle arrest in human A549 cells assessed as accumulation at S phase at IC50 measured after 24 hrs by propidium iodide/RNase staining based flow cytometry (reference value: 31.88%); assay type: functional
MCF7 [38] = test: Induction of apoptosis in human MCF-7 cells assessed as total apoptotic cells at IC50 measured after 24 hrs by Annexin V-FITC/propidium iodide staining based flow cytometry (reference value: 0.69%); assay type: functional
A549 [39] = test: Induction of apoptosis in human A549 cells assessed as total apoptotic cells at IC50 measured after 24 hrs by Annexin V-FITC/propidium iodide staining based flow cytometry (reference value: 0.92%); assay type: functional
[40] = Toxicity in BALB/c mouse xenografted with human MCF7 cells assessed as body weight at 23 mg/kg, ip administered thrice a week for 28 days measured on day 28 (reference value: 31.3 gms); assay type: organism-based; conditions: in vivo, 672 h, time 28 day

With `O=c1[nH]cc(F)c(=O)[nH]1` [FLUOROURACIL] the IC50 (WI-38) was 78500 nM, the inhibition at 100 µM (A549 [1]) was 89.3% and the inhibition at 100 µM (HepG2 [2]) was 80.7%. For the same molecule, the inhibition at 100 µM (MCF7 [3]) was 90.7%, the IC50 (A549 [4]) was 690 nM and the IC50 (HepG2 [5]) was 520 nM. For the same molecule, the IC50 (MCF7 [6]) was 590 nM, the Activity (MCF7 [7]) was 7.26% and the Activity (MCF7 [8]) was 17.71%. For the same molecule, the Activity (MCF7 [9]) was 2.55%, the Activity (A549 [10]) was 4.29% and the Activity (A549 [11]) was 20.68%. For the same molecule, the Activity (A549 [12]) was 3.11%, the Activity (MCF7 [13]) was 20.87 ng/mL and the “fold change (FC)” value (MCF7 [14]) was 11.8. For the same molecule, the Activity (MCF7 [15]) was 289.9 pg/mL, the “fold change (FC)” value (MCF7 [16]) was 6.37 and the Activity (MCF7 [17]) was 2.23 ng/mL. The “fold change (FC)” value (MCF7 [18]) was 0.3, the Activity (A549 [19]) was 13.98 ng/mL and the “fold change (FC)” value (A549 [20]) was 11.63. For the same molecule, the Activity (A549 [21]) was 376.9 pg/mL, the “fold change (FC)” value (A549 [22]) was 8.93 and the Activity (A549 [23]) was 6.21 ng/mL. For the same molecule, the “fold change (FC)” value (A549 [24]) was 0.68, the LD50 at 72 h [25] was 57.2 mg/kg and the Activity (MCF7 [26]) was 0.41 cm3. The Activity (MCF7 [27]) was 27.52%, the Activity (MCF7 [28]) was 34.09% and the Activity (MCF7 [29]) was 42.07%. The Activity (MCF7 [30]) was 23.84%, the “fold change (FC)” value (MCF7 [31]) was 1.5 and the “fold change (FC)” value (MCF7 [32]) was 2.3. The “fold change (FC)” value (MCF7 [33]) was 14, the Activity (A549 [34]) was 28.08% and the Activity (A549 [35]) was 36.47%. It also gave an Activity (A549 [36]) of 37.82%, an Activity (A549 [37]) of 25.71% and an Activity (MCF7 [38]) of 24.97%. The Activity (A549 [39]) was 24.97% and the Activity [40] was 24.5 g.
